In article PMC6934184, “Selective DNA-PKcs inhibition extends the therapeutic index of localized radiotherapy and chemotherapy” (The Journal of Clinical Investigation, 2019):

Target: T1, SRPK1 (Homo sapiens, UniProt Q96SB4)
T1 construct: purchased Thermo Fisher Scientific (Life Technologies) SelectScreen
Assay: SelectScreen Z'LYTE
Assay type: biochemical
Method in brief: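 SelectScreen broad panel; activity (Z'LYTE, Adapta) plus binding formats. ATP: Km app for CSF1R Z'LYTE; 10 for CAMK1 Adapta. Readout = % per kinase.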

T1 sequence (Q96SB4 whole entry): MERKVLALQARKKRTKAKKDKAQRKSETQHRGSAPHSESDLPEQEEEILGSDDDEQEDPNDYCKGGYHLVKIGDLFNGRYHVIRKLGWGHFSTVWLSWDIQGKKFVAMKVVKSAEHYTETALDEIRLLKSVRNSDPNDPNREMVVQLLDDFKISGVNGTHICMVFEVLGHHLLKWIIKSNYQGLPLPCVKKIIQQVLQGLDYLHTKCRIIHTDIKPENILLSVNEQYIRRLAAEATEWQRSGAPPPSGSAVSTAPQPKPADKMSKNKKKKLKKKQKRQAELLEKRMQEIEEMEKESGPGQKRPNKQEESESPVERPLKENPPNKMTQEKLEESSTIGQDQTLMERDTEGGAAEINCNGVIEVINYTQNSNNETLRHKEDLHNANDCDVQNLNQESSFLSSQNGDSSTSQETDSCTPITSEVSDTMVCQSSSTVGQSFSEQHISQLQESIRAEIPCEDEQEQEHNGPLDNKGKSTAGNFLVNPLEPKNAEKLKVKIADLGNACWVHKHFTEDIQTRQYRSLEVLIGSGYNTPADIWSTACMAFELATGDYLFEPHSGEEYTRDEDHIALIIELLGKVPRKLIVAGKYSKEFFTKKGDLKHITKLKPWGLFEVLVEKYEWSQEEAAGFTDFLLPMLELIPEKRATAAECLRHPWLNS

CN(C(=O)CN1CCOCC1)c1ccc2sc3c(-c4cccc5c(=O)cc(N6CC7CCC(C6)O7)oc45)cccc3c2c1 [NU5455]
inhibition at 1 µM: -1.1%
